Data from PMC8470483, “Bidirectional Influences of Cranberry on the Pharmacokinetics and Pharmacodynamics of Warfarin with Mechanism Elucidation” (Nutrients, 2021).
Read-outs that look alike come from different tables or passages of the source. Marks after values point to notes of the source that are not given here.

How the values were obtained:
[1] = Measurement of INR in rats (anticoagulation effect of warfarin); format: in vivo; details: for INR value at 24 h: mean ± S.E.
Procedure: In the pharmacodynamic study, the rats were randomly divided into four groups (n = 8 in each group). In the first experiment, two groups of rats were orally administered (±) warfarin (0.2 mg/kg) alone and with CJ (5 g/kg) given at 0.5 h prior to (±) warfarin dosing, and blood samples were drawn at 6, 10 and 24 h after (±) warfarin dosing. In the second experiment, two groups of rats were orally administered (±) warfarin (0.2 mg/kg) with and without CJ (5 g/kg), given at 10 h after (±) warfarin dosing, and blood samples were drawn at 10, 24, and 48 h after (±) warfarin dosing.
Ten µL of blood was collected and the INR was measured using CoaguChek® XS System (Roche Diagnostics GmbH, Mannheim, Germany). All procedures followed the manufacturer’s protocol.

CYP2C9 = CYP2C9 (Homo sapiens, UniProt P11712); assay: Vivid CYP450 screening kit, CYP2C9 activity; details: positive control, 10 μM, in blank serum
Procedure: Vivid® CYP450 screening kits were used to evaluate the effects of CMs on the activities of CYP1A2, CYP2C9, and CYP3A4, individually [26, 27], and all the procedures were performed based on the standard protocols.

[2] = rats; for Change of AUC0–10 vs warfarin alone / Change of AUC0–t vs warfarin alone / Change of Cmax vs warfarin alone: CJ 5.0 g/kg 0.5 h before warfarin; for Effect of CJ on AUC0–t / Effect of CJ on Cmax: CJ given at 10 h after (±) warfarin; for Decrease of AUC0-t / Decrease of AUC0–10 / Decrease of Cmax: CJ ingestion at 0.5 h before (±) warfarin, vs warfarin alone; for AUC0–10 / AUC0–t / AUC48–96 / Cmax: mean ± S.E.
Procedure: In the pharmacokinetic interaction study, the rats were randomly divided into three groups (n = 7 in each group). The first group of rats was orally administered (±) warfarin (0.2 mg/kg) alone. The second and third groups of rats were administered CJ (5 g/kg) at 0.5 h prior to (±) warfarin and at 10 h after (±) warfarin dosing, respectively. The study was performed in a parallel design. Blood samples were drawn at 0.5, 1.0, 2.0, 6.0, 10, 24, 48, 72, and 96 h after (±) warfarin dosing and collected in a Vacutainer K2 EDTA tube (BD, New Jersey, USA). The blood samples were centrifuged to obtain plasma.
Briefly, 100 µL of plasma was mixed with 50 µL of 0.5N formic acid and then partitioned with 150 µL of ethyl acetate containing 10 µg/mL of caffeic acid as an internal standard.
The pharmacokinetic parameters were calculated by Phoenix WinNonlin® version 8.1 (Pharsight Corporation, St. Louis, MO, USA). The unpaired Student’s t-test and one-way ANOVA were used for statistical comparisons, taking p < 0.05 as significant.

[3] = oral (±) warfarin 0.2 mg/kg + CJ 5.0 g/kg 0.5 h before warfarin
[4] = oral (±) warfarin 0.2 mg/kg + CJ 5.0 g/kg 10 h after warfarin
[5] = oral (±) warfarin 0.2 mg/kg alone

CYP2C9, sequence (P11712 whole entry): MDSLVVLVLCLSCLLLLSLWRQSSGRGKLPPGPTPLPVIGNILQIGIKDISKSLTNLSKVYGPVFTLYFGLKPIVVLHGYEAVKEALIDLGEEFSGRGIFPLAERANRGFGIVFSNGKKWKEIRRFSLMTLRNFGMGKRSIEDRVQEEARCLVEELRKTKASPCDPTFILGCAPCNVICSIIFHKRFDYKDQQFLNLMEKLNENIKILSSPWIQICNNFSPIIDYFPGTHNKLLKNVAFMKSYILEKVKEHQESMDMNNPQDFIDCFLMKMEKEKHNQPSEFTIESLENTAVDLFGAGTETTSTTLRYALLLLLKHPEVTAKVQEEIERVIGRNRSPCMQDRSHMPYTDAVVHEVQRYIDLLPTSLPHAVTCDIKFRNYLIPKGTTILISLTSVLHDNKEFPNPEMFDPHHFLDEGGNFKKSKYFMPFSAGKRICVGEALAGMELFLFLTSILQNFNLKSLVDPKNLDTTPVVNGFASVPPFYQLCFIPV

| SMILES | Change of AUC0–10 vs warfarin alone [2] | Change of AUC0–t vs warfarin alone [2] | Change of Cmax vs warfarin alone [2] | Effect of CJ on AUC0–t [2] | Effect of CJ on Cmax [2] | Decrease of AUC0-t [2] | Decrease of AUC0–10 [2] | Decrease of Cmax [2] | AUC0–10 [2, 3] | AUC0–t [2, 3] | AUC48–96 [2, 3] | Cmax [2, 3] | AUC0–10 [2, 4] | AUC0–t [2, 4] | Cmax [2, 4] | AUC0–10 [2, 5] | AUC0–t [2, 5] | AUC48–96 [2, 5] | Cmax [2, 5] | also measured |
| --- | --- | --- | --- | --- | --- | --- | --- | --- | --- | --- | --- | --- | --- | --- | --- | --- | --- | --- | --- | --- |
| CC(=O)CC(c1ccccc1)c1c(O)c2ccccc2oc1=O (racemic) [(±) warfarin, (±) Warfarin sodium] | – | – | – | – | – | – | – | – | – | – | – | – | – | – | – | – | – | – | – | INR value at 24 h ([1]; control rats, oral (±) warfarin 0.2 mg/kg alone): 1.4 ± 0.1; INR value at 24 h compared with control rats ([1]; rats, CJ given 0.5 h prior to warfarin): not different from the control rats; Increase of INR value at 24 h vs control rats ([1]; rats, CJ given 10 h after warfarin): 93%; INR value at 24 h ([1]; rats, oral (±) warfarin 0.2 mg/kg + CJ 5 g/kg given 0.5 h prior to warfarin): 1.6 ± 0.1; INR value at 24 h ([1]; rats, oral (±) warfarin 0.2 mg/kg + CJ 5 g/kg given 10 h later): 2.7 ± 0.5 |
| Nc1ccc(S(=O)(=O)Nc2ccnn2-c2ccccc2)cc1 [SFZ, sulfaphenazole] | – | – | – | – | – | – | – | – | – | – | – | – | – | – | – | – | – | – | – | Decrease of CYP2C9 activity (CYP2C9): 19% |
| CC(=O)C[C@@H](c1ccccc1)c1c(O)c2ccccc2oc1=O [S-warfarin] | (−52%) | (−34%) | (−48%) | not affected | not affected | 34% | 52% | 48% | 1561.8 ± 217.3 ^b h⋅ng/mL | 6286.7 ± 456.3 ^b h⋅ng/mL | 1041.3 ± 296.5 ^a h⋅ng/mL | 216.3 ± 18.1 ^b ng/mL | 3846.6 ± 260.8 ^a h⋅ng/mL | 11,555.0 ± 613.6 ^a h⋅ng/mL | 542.0 ± 59.4 ^a ng/mL | 3267.7 ± 423.2 ^a h⋅ng/mL | 9459.1 ± 1659.6 ^a h⋅ng/mL | 1126.6 ± 434.5 ^a h⋅ng/mL | 418.2 ± 69.4 ^a ng/mL | AUC48–96 [2, 4]: 2547.9 ± 339.5 ^b h⋅ng/mL |
| CC(=O)C[C@H](c1ccccc1)c1c(O)c2ccccc2oc1=O [R-warfarin] | (−54%) | (−52%) | (−51%) | not affected | not affected | 52% | 54% | 51% | 1310.8 ± 169.6 ^b h⋅ng/mL | 3007.6 ± 230.0 ^b h⋅ng/mL | 90.4 ± 58.2 h⋅ng/mL | 168.6 ± 17.2 ^b ng/mL | 2943.7 ± 185.7 ^a h⋅ng/mL | 4739.3 ± 255.0 ^ab h⋅ng/mL | 402.8 ± 33.6 ^a ng/mL | 2848.9 ± 395.0 ^a h⋅ng/mL | 6209.2 ± 1253.4 ^a h⋅ng/mL | 222.0 ± 125.3 h⋅ng/mL | 341.1 ± 56.6 ^a ng/mL | – |
